According to the CheMixHub ionic liquid set:
± gives the uncertainty stated by the source.

Experiment: xn = mol fraction of the nth substance listed

CCO + O + CCCCCCCCCCCCOS(=O)(=O)[O-].[Na+]
298 K, 100 kPa, frequency 0.001 MHz
Conditions	electrical conductivity [S/m]
x1 = 0.01596, x3 = 0	0.00025
x1 = 0.02563, x2 = 0.9744	0.00026
x1 = 0.04623, x2 = 0.9538	0.00029
x1 = 0.06864, x2 = 0.9314	0.00031 ± 0.00057
x1 = 0.1203, x2 = 0.8797	0.00025
x1 = 0.1463, x2 = 0.8537	0.00025

CCCCCC[N+]1(C)CCCC1.O=S(=O)([N-]S(=O)(=O)C(F)(F)F)C(F)(F)F + CCC[N+]1(C)CCCC1.O=S(=O)([N-]S(=O)(=O)C(F)(F)F)C(F)(F)F
101 kPa
Conditions	electrical conductivity, 313.15 K [S/m]	electrical conductivity, 353.15 K [S/m]	viscosity, 313.15 K [mPa·s]	viscosity, 353.15 K [mPa·s]
x1 = 0.25	0.581 ± 0.058	–	38.6 ± 4	–
x1 = 0.5	–	1.23 ± 0.12	–	13.2 ± 1.4

CCCC[N+](CCCC)(CCCC)Cc1ccccc1.[Cl-] + O
electrical conductivity [S/m], frequency 0.001 MHz
Conditions	293.15 K	298.15 K	303.15 K	308.15 K	313.15 K	318.15 K
100 kPa, x1 = 1.802e-05	0.0056 ± 0.0042	0.0105 ± 0.0042	0.0171 ± 0.0042	0.0235 ± 0.0042	0.0329 ± 0.0042	–
100 kPa, x1 = 5.406e-05	0.0129 ± 0.0042	0.0203 ± 0.0042	0.0243 ± 0.0042	0.0288 ± 0.0042	0.0396 ± 0.0042	–
100 kPa, x1 = 9.009e-05	0.0172 ± 0.0042	0.0255 ± 0.0042	0.0327 ± 0.0042	0.0349 ± 0.0042	0.0468 ± 0.0042	–
101.3 kPa, x1 = 1.802e-05	–	0.0104 ± 0.0043	–	0.0139 ± 0.0051	–	0.0173 ± 0.0061
101.3 kPa, x1 = 5.406e-05	–	0.0231 ± 0.0047	–	0.0284 ± 0.0056	–	0.0345 ± 0.0071
101.3 kPa, x1 = 9.009e-05	–	0.0367 ± 0.006	–	0.0457 ± 0.0069	–	0.0546 ± 0.0081

viscosity [mPa·s]
Conditions	293.15 K	298.15 K	303.15 K	308.15 K	318.15 K
100 kPa, x1 = 1.802e-05	0.953 ± 0.044	0.913 ± 0.044	0.876 ± 0.044	–	–
100 kPa, x1 = 5.406e-05	0.961 ± 0.044	0.921 ± 0.044	0.88 ± 0.044	–	–
100 kPa, x1 = 9.009e-05	0.972 ± 0.044	0.93 ± 0.044	–	–	–
101.3 kPa, x1 = 1.802e-05	–	0.906 ± 0.045	–	0.775 ± 0.045	0.643 ± 0.045
101.3 kPa, x1 = 5.406e-05	–	0.923 ± 0.045	–	0.793 ± 0.045	0.659 ± 0.045
101.3 kPa, x1 = 9.009e-05	–	0.942 ± 0.045	–	–	–

CCCCCCCCCCCCCC[n+]1ccccc1.O=C([O-])C(O)c1ccccc1 + O
electrical conductivity [S/m], 101 kPa
Conditions	293.15 K	298.15 K	303.15 K	308.15 K	313.15 K
x1 = 6.85e-06	0.00248 ± 0.00074	0.00278 ± 0.00083	0.00309 ± 0.00092	0.0034 ± 0.001	0.0037 ± 0.0011
x1 = 1.424e-05	0.00472 ± 0.00079	0.00529 ± 0.00089	0.00587 ± 0.00099	0.0065 ± 0.0011	0.0071 ± 0.0012
x1 = 2.126e-05	0.00671 ± 0.0009	0.0076 ± 0.001	0.0084 ± 0.0011	0.0093 ± 0.0013	0.0101 ± 0.0014
x1 = 2.811e-05	0.0086 ± 0.001	0.0097 ± 0.0012	0.0108 ± 0.0013	0.0122 ± 0.0015	0.0131 ± 0.0016
x1 = 3.46e-05	0.0103 ± 0.0011	0.0116 ± 0.0013	0.0129 ± 0.0014	0.0145 ± 0.0016	0.0157 ± 0.0018
x1 = 4.108e-05	0.0117 ± 0.0012	0.0131 ± 0.0014	0.0146 ± 0.0015	0.0161 ± 0.0017	0.0179 ± 0.0019
x1 = 4.811e-05	0.0129 ± 0.0013	0.0144 ± 0.0015	0.0161 ± 0.0017	0.0179 ± 0.0019	0.0198 ± 0.0021
x1 = 5.388e-05	0.0137 ± 0.0014	0.0154 ± 0.0016	0.0172 ± 0.0018	0.0191 ± 0.002	0.0211 ± 0.0022
x1 = 5.982e-05	0.0145 ± 0.0015	0.0163 ± 0.0017	0.0182 ± 0.0019	0.0202 ± 0.0021	0.0224 ± 0.0023
x1 = 6.559e-05	0.0153 ± 0.0016	0.0172 ± 0.0018	0.0192 ± 0.0019	0.0213 ± 0.0022	0.0236 ± 0.0024
x1 = 7.081e-05	0.016 ± 0.0016	0.018 ± 0.0018	0.02 ± 0.002	0.0223 ± 0.0023	0.0246 ± 0.0025
x1 = 7.604e-05	0.0167 ± 0.0017	0.0187 ± 0.0019	0.0209 ± 0.0021	0.0232 ± 0.0024	0.0258 ± 0.0026
x1 = 8.072e-05	0.0173 ± 0.0018	0.0194 ± 0.002	0.0217 ± 0.0022	0.0241 ± 0.0024	0.0266 ± 0.0027

CCC[N+]1(C)CCCCC1.[Br-] + O + CCCC[N+]1(C)CCCCC1.[Br-]
101 kPa
Conditions	viscosity [mPa·s]
298.15 K, x1 = 0.00449, x3 = 0.004485	1.305 ± 0.016
298.15 K, x2 = 0.9578, x1 = 0.01421	2.565 ± 0.032
303.15 K, x1 = 0.00449, x3 = 0.004485	1.135 ± 0.014
303.15 K, x2 = 0.9577, x1 = 0.02117	2.165 ± 0.027
303.15 K, x2 = 0.9734, x1 = 0.00893	1.615 ± 0.02
308.15 K, x2 = 0.9733, x1 = 0.01334	1.355 ± 0.017

CCCC[N+]1(C)CCCCC1.[Br-] + O + CC[N+]1(C)CCCCC1.[Br-]
101 kPa
Conditions	viscosity [mPa·s]
293.15 K, x2 = 0.9577, x3 = 0.02117	2.805 ± 0.034
293.15 K, x3 = 0.005974, x1 = 0.002995	1.365 ± 0.017
298.15 K, x2 = 0.9734, x3 = 0.00893	1.815 ± 0.023
308.15 K, x2 = 0.9578, x3 = 0.0142	1.845 ± 0.023

CC(=O)[O-].CC[NH2+]CC + CS(C)=O
101 kPa
Conditions	electrical conductivity [S/m]	viscosity [mPa·s]
298.15 K, x1 = 0.0079	0.066 ± 0.002	–
298.15 K, x1 = 0.0285	0.157 ± 0.005	–
298.15 K, x1 = 0.0475	0.217 ± 0.007	–
298.15 K, x1 = 0.0697	0.282 ± 0.008	–
298.15 K, x1 = 0.0998	0.348 ± 0.01	–
298.15 K, x1 = 0.1	–	2.99 ± 0.18
298.15 K, x1 = 0.199	–	3.72 ± 0.23
298.15 K, x1 = 0.1997	0.44 ± 0.013	–
298.15 K, x1 = 0.299	–	5.59 ± 0.34
298.15 K, x1 = 0.3011	0.492 ± 0.015	–
298.15 K, x1 = 0.3994	0.531 ± 0.016	–
298.15 K, x1 = 0.4	–	8.01 ± 0.49
298.15 K, x1 = 0.5	–	11.94 ± 0.73
298.15 K, x1 = 0.5008	0.459 ± 0.014	–
298.15 K, x1 = 0.601	–	15.88 ± 0.98
298.15 K, x1 = 0.6022	0.433 ± 0.013	–
298.15 K, x1 = 0.682	–	21.1 ± 1.3
298.15 K, x1 = 0.7005	0.394 ± 0.012	–
298.15 K, x1 = 0.798	–	32.6 ± 2.1
298.15 K, x1 = 0.8019	0.367 ± 0.011	–
298.15 K, x1 = 0.899	–	44.2 ± 2.8
298.15 K, x1 = 0.9017	0.335 ± 0.01	–
298.15 K, x2 = 0.005	–	58.3 ± 3.8
298.15 K, x2 = 0.2023	–	13.67 ± 0.35
298.15 K, x2 = 0.2814	–	12.66 ± 0.33
298.15 K, x2 = 0.5897	–	8.7 ± 0.23
298.15 K, x2 = 0.66	–	7.71 ± 0.2
298.15 K, x2 = 0.7851	–	5.81 ± 0.15
298.15 K, x2 = 0.971	–	2.53 ± 0.07
303.15 K, x2 = 0.0253	–	13.36 ± 0.34
303.15 K, x2 = 0.7253	–	5.92 ± 0.16
303.15 K, x2 = 0.8406	–	4.41 ± 0.12
303.15 K, x2 = 0.9248	–	3.13 ± 0.09
308.15 K, x2 = 0.1535	–	10.52 ± 0.27
308.15 K, x2 = 0.2814	–	9.46 ± 0.25

CCO + CC[n+]1ccn(CCOC)c1.N#C[S-]
Conditions	viscosity [mPa·s]
308.15 K, 100 kPa, x2 = 0	0.902 ± 0.049

CCO + CCOC(C)(C)C + CCOS(=O)(=O)[O-].CC[n+]1ccn(C)c1
Conditions	viscosity [mPa·s]
298.15 K, 101 kPa, x1 = 1, x2 = 0	1.077 ± 0.026
